EP2970215B1, “PYRROLIDINE DERIVATIVES, PHARMACEUTICAL COMPOSITIONS CONTAINING THEM, AND THEIR USE IN THERAPY” (AbbVie Deutschland GmbH & Co. KG, priority 2013, dated 2014)

Molecular target: T1, human GlyT1c transporter (Homo sapiens, UniProt P48067)
T1 construct: expressed in transfected cells; host or cells: CHO cells (recombinant; line hGlyT1c_5_CHO is named for the uptake assay)
T1 sequence (P48067 1-706): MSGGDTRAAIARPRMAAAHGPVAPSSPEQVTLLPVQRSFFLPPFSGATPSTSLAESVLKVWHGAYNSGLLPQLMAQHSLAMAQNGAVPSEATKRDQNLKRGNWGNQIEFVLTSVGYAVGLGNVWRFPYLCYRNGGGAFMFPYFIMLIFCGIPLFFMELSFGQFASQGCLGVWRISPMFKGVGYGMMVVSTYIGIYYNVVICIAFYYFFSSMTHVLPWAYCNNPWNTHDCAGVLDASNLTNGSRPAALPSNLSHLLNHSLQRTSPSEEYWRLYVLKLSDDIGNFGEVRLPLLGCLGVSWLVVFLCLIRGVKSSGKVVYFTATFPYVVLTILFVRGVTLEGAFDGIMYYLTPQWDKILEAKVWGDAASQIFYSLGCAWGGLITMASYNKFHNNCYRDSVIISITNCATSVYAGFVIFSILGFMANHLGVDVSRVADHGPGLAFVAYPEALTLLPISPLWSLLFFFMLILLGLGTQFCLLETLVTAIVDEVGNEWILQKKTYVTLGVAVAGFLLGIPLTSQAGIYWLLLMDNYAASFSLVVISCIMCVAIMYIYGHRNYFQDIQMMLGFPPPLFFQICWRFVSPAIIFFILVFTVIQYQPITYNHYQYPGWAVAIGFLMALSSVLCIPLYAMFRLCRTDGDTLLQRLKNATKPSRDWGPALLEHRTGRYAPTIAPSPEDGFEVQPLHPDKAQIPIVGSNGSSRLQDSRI
Test: Radioligand binding assay using recombinant CHO cell membranes expressing human GlyT1
Settings: radioligand binding to human GlyT1c transporter-expressing membranes
From the text: 2. Radioligand binding assays using recombinant CHO cell membranes expressing human GlyT1: […]

Row | Structure (SMILES) | Ki
1 | Cc1cc(N[C@@H]2CN(S(=O)(=O)c3cn(C)cn3)C[C@H]2c2ncccc2F)ccc1F (relative stereo) [Example 775, Trans-N-(4-fluoro-3-methylphenyl)-4-(3-fluoropyridin-2-yl)-1-[(1-methyl-1H-imidazol-4-yl)sulfonyl]pyrrolidin-3-amine] | ≤ 1000 nM
2 | N#Cc1ccccc1S(=O)(=O)N1C[C@@H](Nc2ccc(F)cc2)[C@H](c2ccccc2)C1 (relative stereo) [Example 529, 2-({Trans-3-[(4-fluorophenyl)amino]-4-phenylpyrrolidin-1-yl}sulfonyl)benzonitrile] | ≤ 10000 nM
3 | Cn1cnc(S(=O)(=O)N2C[C@H](Nc3cc(C4CC4)ncn3)[C@@H](c3ccccc3)C2)c1 [Example 612, 6-cyclopropyl-N-{(3R,4S)-1-[(1-methyl-1H-imidazol-4-yl)sulfonyl]-4-phenylpyrrolidin-3-yl}pyrimidin-4-amine] | ≤ 1000 nM
4 | Cc1cc(N[C@H]2CN(S(=O)(=O)c3cn(C)cn3)C[C@@H]2c2ccccc2)ncn1 [Example 637, 6-methyl-N-{(3R,4S)-1-[(1-methyl-1H-imidazol-4-yl)sulfonyl]-4-phenylpyrrolidin-3-yl}pyrimidin-4-amine] | ≤ 10000 nM
5 | Cn1cnc(S(=O)(=O)N2C[C@@H](Nc3cccc(F)c3)[C@H](c3ccccc3F)C2)c1 (relative stereo) [Example 199, trans-4-(2-fluorophenyl)-N-(3-fluorophenyl)-1-[(1-methyl-1H-imidazol-4-yl)sulfonyl]pyrrolidin-3-amine] | ≤ 1000 nM
6 | Cc1nc(C)c(S(=O)(=O)N2CC(Nc3ccc(F)c(F)c3)C(c3ccccc3)C2)s1 (stereo not shown) [Example 474, N-(3,4-difluorophenyl)-1-[(2,4-dimethyl-1,3-thiazol-5-yl)sulfonyl]-4-phenylpyrrolidin-3-amine] | ≤ 10000 nM
7 | O=S(=O)(N1CCCC1)N1CC(Nc2ccc(F)c(F)c2)C(c2ccccc2)C1 (stereo not shown) [Example 485, N-(3,4-difluorophenyl)-4-phenyl-1-(pyrrolidin-1-ylsulfonyl)pyrrolidin-3-amine] | ≤ 10000 nM
8 | CC(CCN[C@H]1CN(S(=O)(=O)c2cn(C)cn2)C[C@@H]1c1ccccc1)CC(C)(C)C (stereo partly drawn) [Example 464, (3R,4S)-1-[(1-methyl-1H-imidazol-4-yl)sulfonyl]-4-phenyl-N-(3,5,5-trimethylhexyl)pyrrolidin-3-amine] | ≤ 1000 nM
9 | Cc1nc(-c2ccccc2)sc1CN[C@H]1CN(S(=O)(=O)c2cn(C)cn2)C[C@@H]1c1ccccc1 [Example 473, (3R,4S)-1-[(1-methyl-1H-imidazol-4-yl)sulfonyl]-N-[(4-methyl-2-phenyl-1,3-thiazol-5-yl)methyl]-4-phenylpyrrolidin-3-amine] | ≤ 100 nM
10 | Cn1cnc(S(=O)(=O)N2C[C@H](Nc3ncc(F)cn3)[C@@H](c3ccccc3)C2)c1 [Example 424, 5-fluoro-N-{(3R,4S)-1-[(1-methyl-1H-imidazol-4-yl)sulfonyl]-4-phenylpyrrolidin-3-yl}pyrimidin-2-amine] | ≤ 1000 nM
11 | Cn1cnc(S(=O)(=O)N2C[C@H](Nc3ccc(F)c(F)c3)[C@@H](c3ccc(F)cc3)C2)c1 [Example 418, (3R,4S)-N-(3,4-difluorophenyl)-4-(4-fluorophenyl)-1-[(1-methyl-1H-imidazol-4-yl)sulfonyl]pyrrolidin-3-amine] | ≤ 100 nM

Same assay, conditions: radioligand binding, recombinant CHO cell membranes expressing human GlyT1c

Row | Structure (SMILES) | Ki
12 | Cn1cnc(S(=O)(=O)N2C[C@@H](Nc3cccc(OC(F)(F)F)c3)[C@H](C3CCOC3)C2)c1 (relative stereo) [Example 835, trans-1-[(1-methyl-1H-imidazol-4-yl)sulfonyl]-4-(tetrahydrofuran-3-yl)-N-[3-(trifluoromethoxy)phenyl]pyrrolidin-3-amine] | ≤ 1000 nM
13 | Cn1cc(S(=O)(=O)N2C[C@@H](NCc3ccc(C(F)(F)F)cc3Cl)[C@H](c3ncccc3F)C2)nn1 (relative stereo) [Example 818, Trans-N-[2-chloro-4-(trifluoromethyl)benzyl]-4-(3-fluoropyridin-2-yl)-1-[(1-methyl-1H-1,2,3-triazol-4-yl)sulfonyl]pyrrolidin-3-amine] | ≤ 10 nM
